According to patent publication US20080207719A1, “Treatment of Epilepsy” (ORION CORPORATION, priority 2003, published 2008):
Where “and” joins values, the source holds several entries; their conditions need not be identical. Equal entries are not always repeated.

Key:
[1] = tested on: Male Harlan Sprague-Dawley rats; assay: Development of epilepsy after status epilepticus (SE) induced by electrical stimulation of the amygdala; chronic treatment started 1 wk after SE; format: in vivo; conditions: for Number of animals with mild (≦1 seizure/day) epilepsy, during treatment / Number of animals with severe (>1 seizure/day) epilepsy, during treatment / Number of animals with mild (≦1 seizure/day) epilepsy, All / Number of animals with severe (>1 seizure/day) epilepsy, All / Number of animals with mild (≦1 seizure/day) epilepsy, after treatment / Number of animals with severe (>1 seizure/day) epilepsy, after treatment: rats after SE; for Number of animals with mild (≦1 seizure/day) epilepsy, during treatment / Number of animals with severe (>1 seizure/day) epilepsy, during treatment: atipamezole 100 μg/kg/h s.c. minipump for 9 wk starting 1 wk after SE, DZP 20 mg/kg i.p. at 3 h after beginning of SE; for Number of animals with severe (>1 seizure/day) epilepsy, during treatment: animals/epileptic animals; for Number of animals with mild (≦1 seizure/day) epilepsy, All / Number of animals with severe (>1 seizure/day) epilepsy, All: both follow-ups (All); for Number of animals with mild (≦1 seizure/day) epilepsy, after treatment / Number of animals with severe (>1 seizure/day) epilepsy, after treatment: follow-up after the 9 wk treatment
Protocol: To mimic the clinical environment, α2-adrenoceptor antagonist treatment with atipamezole was started 1 wk after induction of status epilepticus (SE) with subcutaneous Alzet minipumps and continued for 9 wk. Two independent studies were carried out.
Male Harlan Sprague-Dawley rats (300-350 g; Netherlands) were used in this study. After implantation of electrodes, rats were housed in individual cages at a temperature of 19-21° C., with humidity at 50-60% and lights on 7.00-19.00. Standard food pellets and water were freely available.
The animals were anaesthetized with an intraperitoneal injection of sodium pentobarbital (60 mg/kg) and chloral hydrate (60 mg/kg) and inserted into a stereotaxic frame (lambda and bregma at the same horizontal level). A pair of stimulating electrodes (0.5 mm tip separation) was implanted into the lateral nucleus of the left amygdala (3.6 mm posterior, 5.0 mm lateral, and 6.5 mm ventral to bregma). One stainless steel screw was inserted into the skull above the right frontal cortex and served as cortical electrode (3 mm anterior to the bregma, 2 mm lateral to midline). Two stainless steel screws were inserted into the skull bilaterally over the cerebellum, which served as indifferent and ground electrodes. The electrodes were fixed with dental acrylate. The rats were allowed to recover from surgical operation for 14 d, after which electrical stimulation was initiated.
After discharge threshold was assessed by stimulating the amygdala with a one-second train of one-msec bipolar square-wave pulses (60 Hz, 50-400 μA peak to peak). Only those rats in which after discharges could be induced at 400 μA or at lower current level were included in the study.
To induce SE, the amygdala was stimulated repeatedly at 500 msec intervals with a train of pulses lasting 100 msec (1 msec 60 Hz bipolar pulses at 400 μA peak to peak). […] Once the criterion of SE was achieved, no further stimulation was given. After 3 h, SE was terminated by injecting diazepam 20 mg/kg (i.p.).
Vehicle (0.9% saline, Natrosteril 9 mg/ml, Baxter, Vantaa, Finland) was administered via subcutaneous Alzet minipumps with a pumping rate of 9.15 μl/h in 1-wk and 2.61 μl/h in 8-wk pumps starting 1 wk after stimulation. Minipumps were implanted subcutaneously to the back between the scapulae according to the instructions provided by manufacturer. For implantation, animals were anesthetized with an intraperitoneal injection of sodium pentobarbital (60 mg/kg) and chloral hydrate (60 mg/kg).
Diazepam was administered at 3 h after the beginning of SE (20 mg/kg, i.p.). Atipamezole treatment was started 1 wk after SE. Compound was administered with subcutaneous Alzet osmotic minipumps and continued for 9 wk. Atipamezole was dissolved into sterile 0.9% NaCl. The concentration of atipamezole was adjusted according to the weight of the rat and pumping rate to obtain a constant flow-rate of 100 μg/kg/h.
• DZP (diazepam)+vehicle (n=11): Rats with SE treated with DZP (20 mg/kg, i.p.) at 3 h after the beginning of SE. Chronic treatment with vehicle (0.9% NaCl, subcutaneous Alzet minipumps) for 9 wk starting 1 wk after SE. • DZP+atipamezole (n=7): Rats with SE treated with DZP (20 mg/kg, i.p.) at 3 h after the beginning of SE. Chronic treatment with atipamezole (100 μg/kg/h, subcutaneous Alzet minipumps) for 9 wk starting 1 wk after SE.
Controls (n=9): Operated, non-stimulated and non-treated controls.
Ø+vehicle (n=11): No treatment at 3 h after the beginning of SE. Chronic treatment with vehicle (0.9% NaCl in subcutaneous Alzet minipump) for 9 wk starting 1 wk after SE.
DZP+vehicle (n=10): Diazepam treatment (20 mg/kg, i.p.) at 3 h after the beginning of SE. Chronic treatment with vehicle (0.9% NaCl in subcutaneous Alzet minipump) for 9 wk starting 1 wk after SE.
Ø+atipamezole (n=10). No treatment at 3 h after the beginning of SE. Chronic treatment with atipamezole (100 μg/kg/h, subcutaneous Alzet minipumps) for 9 wk starting 1 wk after SE.
DZP+atipamezole (n=12). […]

[2] = tested on: alpha2-adrenoceptor; conditions: background statement, no species differences (human and rodent); cited from earlier work
[3] = tested on: kainate-induced seizures; conditions: acute administration; Halonen T. et al., Brain Res 1995; cited from earlier work
[4] = tested on: cortical excitability; conditions: oral administration, humans; Plewnia C et al., Neurosci Lett 2001; cited from earlier work
[5] = listed as Ø + atipamezole, hydrochloride
[6] = listed as Ø/DZP + atipamezole, hydrochloride

CN1C(=O)CN=C(c2ccccc2)c2cc(Cl)ccc21 [DZP + vehicle]
Rats with >1 seizure/day ([1]; data combined from the two studies): 50% | Number of animals with mild (≦1 seizure/day) epilepsy, during treatment [1]: 1/4 and 6/10 | Number of animals with severe (>1 seizure/day) epilepsy, during treatment [1]: 3/4 and 4/10 | Number of animals with mild (≦1 seizure/day) epilepsy, All [1]: 2/4 and 5/10 | Number of animals with severe (>1 seizure/day) epilepsy, All [1]: 2/4 and 5/10 | Number of animals with mild (≦1 seizure/day) epilepsy, after treatment [1]: 1/3 and 5/9 | Number of animals with severe (>1 seizure/day) epilepsy, after treatment [1]: 2/3 and 4/9

CCC1(c2c[nH]cn2)Cc2ccccc2C1.Cl [atipamezole, 4-(2-ethyl-2,3-dihydro-1H-inden-2-yl)-1H-imidazole hydrochloride]
alpha2/alpha1-selectivity ratio [2]: high | Number of animals with severe (>1 seizure/day) epilepsy, during treatment [1, 5]: 1/8 | Number of animals with severe (>1 seizure/day) epilepsy, during treatment [1, 6]: 1/20 | Number of animals with mild (≦1 seizure/day) epilepsy, during treatment [1, 5]: 7/8 | Number of animals with mild (≦1 seizure/day) epilepsy, during treatment [1, 6]: 19/20 | Number of animals with mild (≦1 seizure/day) epilepsy, All [1, 5]: 7/8 | Number of animals with severe (>1 seizure/day) epilepsy, All [1, 5]: 1/8 | Number of animals with mild (≦1 seizure/day) epilepsy, All [1, 6]: 21/22 | Number of animals with severe (>1 seizure/day) epilepsy, All [1, 6]: 1/22 | Number of animals with mild (≦1 seizure/day) epilepsy, after treatment [1, 5]: 6/7 | Number of animals with severe (>1 seizure/day) epilepsy, after treatment [1, 5]: 1/7 | Number of animals with mild (≦1 seizure/day) epilepsy, after treatment [1, 6]: 19/20 | Number of animals with severe (>1 seizure/day) epilepsy, after treatment [1, 6]: 1/20 | Effect on epileptogenesis ([1]; summary statement, epilepsy that develops is milder and can be non-progressive): clear disease-modifying effect on epileptogenesis | Effect on kainate-induced seizures [3]: proconvulsant effect

COC(=O)[C@@H]1[C@H]2C[C@H]3c4[nH]c5ccccc5c4CCN3C[C@@H]2CC[C@@H]1O [yohimbine]
Cortical excitability induced by transcranial magnetic stimulation [4]: increased cortical excitability
